One compound from ChEMBL document CHEMBL1132807, “Synthesis of a heterocyclic aza-enediyne and its DNA-cleavage properties” (Bioorg Med Chem Lett, 2000) can be followed below.

The nature of the test: Concentration required for cleaving the supercoiled DNA at pH 8. In kind it is functional.

Molecules are shown by their SMILES.

`C[n+]1c(C#Cc2ccccc2)n(CC#Cc2ccccc2)c2ccccc21` yielded a Concentration of 100 µM.
